This assay has as its system CRP in Hep3B cells. The assay can be described thus: Human Hep3B cells - CRP assay (CRP ELISA). Conditions: 72 h, Hep3B cells stimulated with IL-1β, IL-6 and dexamethasone, three days, read-out: EC50 for reducing CRP levels. The format is cell-based. From the text: Hep3B Cell Line is obtained from the American Type Culture Collection (ATCC Catalog No. HB-8064). The Hep3B cell line was derived from liver tissue of […]. The cells are epithelial in morphology and produce tumors in nude mice. The cells produce α-fetoprotein, hepatitis B surface antigen, albumin, α-2-macroglobulin, α-1-antitrypsin, transferrin, plasminogen, complement C3 and β-lipoprotein (Knowles BB, et al., Science, 1980, 209:497-499). This cell line has been widely used to study hepatocyte cytokine and acute phase protein release (e.g., Damtew B, et al.,1993, J Immunol 150:4001-4007).
HEP3B cells are grown in Minimum Essential Medium (MEM; GIBCO) supplemented with 10% Fetal Bovine Serum (FBS; Hyclone), 1×Penicillin/Streptomycin (GIBCO, Cat #15140-122) and 0.1 mM non-essential amino acids (GIBCO, Catalog No. 11140-050). Cells are thawed and transferred to warm medium according to standard methods known in the art.
Cells are incubated in flasks at 37° C. with 5% CO2 in an air atmosphere incubator. HEP3B growth media is changed every 2 days until the cells reach 70-80% confluence (approx. 3-4 days). For assay, the cells are transferred to 96-well plates, seeded at 5000 cells per well in culture media, and left to grow for 7 days in a 37° C. incubator (air supplemented with 5% CO2). Media is replaced daily until assay. Test compounds are diluted into “Stimulus Buffer” (MEM medium containing 0.1 mM non-essential amino acids, 1×penicillin/streptomycin, 10% FBS with 10 ng/ml IL-1β, 20 ng/ml IL-6 and 1 μM dexamethasone. Media is removed from the cells and is replaced with 200 μl of test dilution. Cells are returned to the incubator for three days at 37° C. CRP ELISA is then performed on supernatant from the cells, as described below.
Costar EIA/RIA plates are coated with rabbit anti-human CRP (DAKO) diluted 1:4000 in carbonate buffer (100 μl/well) for 45 minutes at 37° C. Plates are then washed 5×with CRP washing buffer (50 mM Tris-HCl, 0.3M NaCl, […], pH 8.0) using an automatic plate washer. Plates may be dried, covered and refrigerated until use. Supernatant (100 μl) is removed from each well of the test plates and added to the corresponding well of a precoated ELISA plate.
100 μl HRP-conjugated rabbit anti-human CRP (DAKO) diluted 1:500 (in CRP wash buffer) is added to each well, followed by incubation for 30 minutes at 37° C. Plates are washed 5× with CRP washing buffer using the automatic plate washer. 200 μl of 3,3′,5,5′-Tetramethyl Benzidine (TMB) liquid Substrate System (Sigma, St. Louis, Mo.) is added to each well, followed by incubation in the dark for 15 minutes at room temperature. Finally, 50 μl of 1 M H2SO4 is added to each well and absorbance at 450 nm is immediately measured in a microtiter spectrophotometer.
CRP measured as above is normalized to cell count per well, using a cell viability assay, such as the Cell Tracker Green assay. To do this, the remainder of the medium is from the cell test plates, cells are washed with 200 μl of pre-warmed 1×Hanks Basic Salt Solution (HBSS; GIBCO), and 100 μL of 5 μM Cell Tracker Green (Molecular Probes, Eugene, Oreg.) is added to each well. Plates are then incubated at 37° C. for 30 minutes. Cells are then washed twice with prewarmed 1×HBSS. Plates are immediately read using a Fluoroskan® flourometer with a 485 excitation/538 emission filter pair.
Background: In an ELISA, binding on a coated surface is turned into a signal by an enzyme label.

SMILES strings stand for the structures.

In the case of `Cc1c(C)c2occ(-c3ccccc3)c2c2c(-c3ccccc3)coc12` [4,5-Dimethyl-1,8-diphenyl-benzo[1,2-b;4,3-b′]difuran], the concentration for a half-maximal effect (EC50) (in general, the concentration needed to bring the measured effect to its halfway point) lay within 10 to 40 µM.

`Cc1c(O)cc2cc(C3(O)CN(C)CCO3)oc2c1C` (stereo not shown) [2-(5-Hydroxy-6,7-dimethyl-benzofuran-2-yl)-4-methyl-morpholin-2-ol]: the EC50 lay in the range of 10 to 40 µM.

As to `COc1ccc(-c2coc3c(C)c(C)c(O)cc23)cc1` [3-(4-Methoxy-phenyl)-6,7-dimethyl-benzofuran-5-ol], the EC50 lay within 10 to 40 µM.

As to `Cc1c(O)cc2c(-c3ccccc3)coc2c1C` [6,7-Dimethyl-3-phenyl-benzofuran-5-ol], the EC50 is 10 to 40 µM.

For `CC(=O)c1oc2c(C)c(C)c(O)cc2c1Br` [1-(3-Bromo-5-hydroxy-6,7-dimethyl-benzofuran-2-yl)-ethanone], the EC50 is 10 to 40 µM.

As for `CC(=O)c1cc2cc(O)c(C)c(C)c2o1` [1-(5-Hydroxy-6,7-dimethyl-benzofuran-2-yl)ethanone], the EC50 fell in the range of 10 to 40 µM.

In the case of `Cc1c(O)cc2cc(C(=O)CN3CCOCC3)oc2c1C` [1-(5-Hydroxy-6,7-dimethyl-benzofuran-2-yl)-2-morpholin-4-yl-ethanone], the EC50 is 10 to 40 µM.

The record behind these values is patent US6653346B1, “Cytoprotective benzofuran derivatives” (Galileo Pharmaceuticals, Inc., priority 2002, dated 2003).
